The values below come from patent US20030083374A1, “NAALADase inhibitors useful as pharmaceutical compounds and compositions” (priority 1998, published 2003).

Experiment [1] has as its system STZ-induced diabetic rats. The experiment can be described thus: in vivo assay on neuropathic pain in STZ-diabetic rats (Hargreaves). The following applies: 10 mg/kg i.p. daily, started 45 days post-STZ. On the set-up: species or system Male Sprague-Dawley rats. The procedure: Male Sprague-Dawley rats (200-225 g) were rendered diabetic by intravenous administration of streptozotocin (STZ, 70 mg/kg in phosphate buffered saline). Diabetic animals were divided into five groups: one group receiving Compound 2 (10 mg/kg or 1 mg/kg), Compound 1 (10 mg/kg or 1 mg/kg) or vehicle. Another group of animals (non-STZ treated) served as non-diabetic controls. Drug/vehicle treatment was started in diabetic animals 45 days post-STZ administration. STZ-induced diabetic rats were tested for sensitivity to a heat source as soon as blood glucose levels rose to 320 mg/dl or above (30 days post STZ). The rats were then acclimated to the Hargreaves apparatus and thermal nociception was monitored using an infrared heat source directed into the […] surface of the hindpaw, and the time taken for the animal to remove its paw noted to the nearest 0.1 seconds (see Hargreaves et al. 1998 for detailed method). The intensity of the beam source was adjusted such that the mean latency for control animals (non-STZ treated) was approximately 10 seconds. Each animal was tested 8 times and the mean difference score (between mean non-diabetic control latency and mean diabetic latency) are graphically presented in FIGS. 19A and 19B.

Experiment [2] concerns PCP-treated rats. The experiment can be described thus: in vivo assay on schizophrenia (PCP model). Conditions: 50 mg/kg i.p. before PCP (5 mg/kg). How it is done:
Rats treated with PCP develop symptoms, such as frantic running and incessant head-turning, that parallel psychotic symptoms in humans. Thus, to examine the effects of NAALADase inhibition on schizophrenia, rats were treated intraperitoneally with Compound 1 (50 mg/kg), Compound 2 (50 mg/kg) or a vehicle (H2O) before they received PCP (5 mg/kg). Head rolling scores were measured for over 2 hours following PCP injection.

For experiment [3], the system named is BB/W diabetic rats. The experiment can be described thus: progression of neuropathic pain in BB/W diabetic rats, thermal nociception. It is filed as in vivo, Male BB/W rats. Conditions: 10 mg/kg i.p. daily; starting after 4 weeks, through six months. The source says:
Male BB/W rats (BR1, Mass) spontaneously develop a cell mediated autoimmune destruction of pancreatic B cells, resulting in onset of insulin-dependent (Type I) diabetes (Guberski 1994). […] This renders them valuable for experimental trials of new compounds for future treatments of this major disorder. In the present study, Compound 1 and Compound 2 were examined for their ability to alter the progression of diabetic neuropathy. The rats received daily injection of Compound 1 or Compound 2 (10 mg/kg i.p.) or vehicle, starting at the onset of diabetes (hyperglycemia) and up to 6 months thereafter. Another group of non-diabetic rats also receiving vehicle were tested. All animals were continuously monitored for body weight, urine volume, blood sugar and glycated haemoglobin. In the first month of the study, all animals were tested for thermal nociception in a Hargreaves apparatus, weekly. After the first month this was done biweekly and then monthly. The testing consists of directing an infrared heat source onto the […] surface of the rat hindpaw and noting the time taken for the animal to remove its paw (for detailed method see Hargreaves et al. 1998). Each animal was tested 8 times and the mean withdrawal latency noted.

Experiment [4] deals with acetic acid (0.6%) induced writhing. The experiment can be described thus: acetic acid model of pain (writhing). Conditions: pretreated. The format is in vivo, mice. An excerpt: One source of neuronal glutamate is thought to derive from the abundant neuropeptide NAAG which is hydrolyzed by NAALADase to liberate free glutamate. The inventors hypothesized that inhibition of NAALADase could limit pain by preventing this source of glutamate. To test this hypothesis, the inventors examined the possible antinocipetive effects of several NAALADase inhibitors in the formalin-, acetic acid- and chronic constrictive injury (CCI; “Bennett model”) models of pain. […] On day 7, 5% formalin was injected into the dorsum of the rat's hindpaw.
A general note: An intraperitoneal irritant provokes the stretching counted in writhing tests.

Experiment [5] concerns cortical cell cultures. The experiment can be described thus: in vitro assay of NAALADase inhibitors on ischemia in cortical cell cultures. The format is cell-based. Conditions: concentration required to cause a 50% reduction in glutamate toxicity following an ischemic insult (potassium cyanide and 2-deoxyglucose). An excerpt:
Some results are set forth in U.S. Pat. Nos. 5,672,592, 5,795,877, 5,863,536, 5,880,112 and 5,902,817, allowed U.S. patent application Ser. Nos. 08/825,997, 08/833,628, 08/842,360 and 08/899,319 for which the issue fees have been paid, the entire contents of which patents and applications are herein incorporated by reference. Other results are provided below in TABLE III.

`O=C(O)CCC(CCS)C(=O)O` (centres unmarked) [Compound 1, 2-(2-sulfanylethyl)pentanedioic acid]: the “hyperalgesic response in diabetic rats” value in experiment [1] is reported as “completely reversed”. In addition, the “locomotor-activating effects of PCP (head rolling scores)” value in experiment [2] is “significantly reduced”. Besides, the “withdrawal latencies vs. diabetic vehicle-treated rats” value in experiment [3] was “longer withdrawal latencies”. For the same compound, the “acetic acid (0.6%) induced writhing vs. vehicle control” value in experiment [4] is recorded as “significantly attenuated”. Moreover, it took 2 nM to reach a half-maximal effect in experiment [5] (EC50).

The EC50 is the concentration at which the effect is half-maximal. Higher therefore signals a less potent agent.
